# Results published in US20230322789A1, “PYRAZOLOPYRIDAZINONE COMPOUND, AND PHARMACEUTICAL COMPOSITION AND USE THEREOF” (BroadenBio Co., Ltd., priority 2020, published 2023).
# pIC50: −log10 of the molar value. Counter-ions that a name gives are not always drawn.
# Key:
# [1] = target: HPK1 (Homo sapiens (Human), UniProt Q92918); assay: HPK1 kinase activity inhibition test (ADP-Glo, luminescence); format: biochemical; settings: HPK1 5 nM, ATP 2 μM, read-out: IC50, inhibitory effects of compounds on HPK1 kinase activity
# In short: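 HPK1 autophosphorylation was run without added substrate. Kinase and compound were preincubated 10 min at 25° C., then ATP was added for 60 min at 25° C. ADP formed was detected by ADP-Glo luminescence, and IC50 was taken from a four-parameter nonlinear fit.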
# [2] = tested on: Human Jurkat-E6-1 cells; assay: Measurement of IL-2 secretion of Jurkat cells by ELISA; format: cell-based; settings: Homo sapiens, Jurkat E6.1, anti-CD3/anti-CD28 stimulation 24 hours, read-out: Percentage of the amount of IL-2 secreted from compound treated/DMSO-treated cells; for activity at 1 µM: test compound 1.0 μM; for activity at 3 µM: test compound 3.0 μM
# In short: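 Jurkat-E6-1 cells pre-incubated with compound for 30 min at 37° C, then stimulated 24 h with plate-bound anti-CD3 plus soluble anti-CD28. Secreted IL-2 in medium quantified by sandwich ELISA against a standard curve; expressed as percent of DMSO-treated cells.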
# Chain of HPK1 (Q92918 whole entry): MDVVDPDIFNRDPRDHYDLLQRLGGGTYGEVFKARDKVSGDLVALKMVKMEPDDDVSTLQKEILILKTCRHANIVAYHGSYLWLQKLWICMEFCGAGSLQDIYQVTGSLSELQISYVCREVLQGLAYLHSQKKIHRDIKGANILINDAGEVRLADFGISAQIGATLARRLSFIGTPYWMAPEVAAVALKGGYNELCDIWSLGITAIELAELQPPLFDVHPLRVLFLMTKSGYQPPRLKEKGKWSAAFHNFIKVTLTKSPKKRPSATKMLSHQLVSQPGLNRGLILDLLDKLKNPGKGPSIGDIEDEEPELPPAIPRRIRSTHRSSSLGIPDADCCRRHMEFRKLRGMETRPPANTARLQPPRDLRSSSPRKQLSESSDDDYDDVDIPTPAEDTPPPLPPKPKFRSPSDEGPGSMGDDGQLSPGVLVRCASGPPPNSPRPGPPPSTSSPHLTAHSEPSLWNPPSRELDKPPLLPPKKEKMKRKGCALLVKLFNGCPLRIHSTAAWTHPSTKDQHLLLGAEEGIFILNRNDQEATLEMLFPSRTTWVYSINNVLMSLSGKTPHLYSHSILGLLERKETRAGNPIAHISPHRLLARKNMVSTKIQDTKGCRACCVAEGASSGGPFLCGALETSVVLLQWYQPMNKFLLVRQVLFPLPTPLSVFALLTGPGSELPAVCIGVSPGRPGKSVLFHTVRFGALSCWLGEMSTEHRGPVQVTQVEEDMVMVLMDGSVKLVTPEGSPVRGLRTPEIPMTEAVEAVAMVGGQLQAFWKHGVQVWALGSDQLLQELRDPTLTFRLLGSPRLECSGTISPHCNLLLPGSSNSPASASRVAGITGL
pIC50 [1],Compound,activity at 1 µM [2],activity at 3 µM [2],activity at 0.33 µM ([2]; test compound 0.33 μM)
6.30 to 7.30,"Cc1cccc(F)c1-n1nc2c(-c3ccc4c(c3)CN(C(C)CO)CC4)n[nH]c2cc1=O (centres unmarked) [Compound 165, 5-(2-fluoro-6-methylphenyl)-3-(2-(1-hydroxylprop-2-yl)-1,2,3,4-tetrahydroisoquinolin-7-yl)-1H-pyrazolo[4,3-c]pyridazin-6(5H)-one]",181%,–,–
6.30 to 7.30,"Cc1cccc(F)c1-n1nc2c(-c3ccc4c(c3)CN(C3CNC3)CC4)n[nH]c2cc1=O [Compound 164, 3-(2-(azetidin-3-yl)-1,2,3,4-tetrahydroisoquinolin-7-yl)-5-(2-fluoro-6-methylphenyl)-1H-pyrazolo[4,3-c]pyridazin-6(5H)-one hydrochloride]",–,159%,–
≥ 7.30,CN1CCN(c2ccc(-c3n[nH]c4cc(=O)n(-c5c(F)cccc5Cl)nc34)cn2)CC1 [Compound 107],–,599%,–
≥ 7.30,"Cc1cccc(F)c1-n1nc2c(-c3ccc(N4CCC(N5CCOCC5)CC4)cc3)n[nH]c2cc1=O [Compound 142, 5-(2-fluoro-6-methylphenyl)-3-(4-(4-morpholinopiperidin-1-yl)phenyl)-1H-pyrazolo[4,3-c]pyridazin-6(5H)-one]",–,708%,–
≥ 7.30,"Cc1cccc(F)c1-n1nc2c(-c3ccc4c(c3)CN3C(=O)OC[C@@H]3C4)n[nH]c2cc1=O [Compound 177, (S)-7-(5-(2-fluoro-6-methylphenyl)-6-oxo-5,6-dihydro-1H-pyrazolo[4,3-c]pyridazin-3-yl)-10,10a-dihydro-1H-oxazolo[3,4-b]isoquinolin-3(5H)-one]",–,481%,–
≥ 7.30,"Cc1cccc(F)c1-n1nc2c(-c3ccc(N4C[C@@H](C)N(C)[C@@H](C)C4)cc3)n[nH]c2cc1=O [Compound 90, 5-(2-fluoro-6-methylphenyl)-3-(4-((3S,5R)-3,4,5-trimethylpiperazin-1-yl)phenyl)-1H-pyrazolo[4,3-c]pyridazin-6(5H)-one]",–,667%,–
≥ 7.30,"COc1cccc(F)c1-n1nc2c(-c3ccc(N4CCC(O)CC4)cc3)n[nH]c2cc1=O [Compound 139, 5-(2-fluoro-6-methoxyphenyl)-3-(4-(4-hydroxylpiperidin-1-yl)phenyl)-1H-pyrazolo[4,3-c]pyridazin-6(5H)-one]",–,315%,–
6.30 to 7.30,"Cc1ccccc1-n1nc2c(-c3ccc(N4CCN(C)CC4)cc3)n[nH]c2cc1=O [Compound 5, 5-(2-methylphenyl)-3-(4-(4-methylpiperazin-1-yl)phenyl)-1H-pyrazolo[4,3-c]pyridazin-6(5H)-one]",162%,–,–
≥ 7.30,"Cc1cccc(F)c1-n1nc2c(-c3ccc(N4CCN(C)CC4)cc3)n[nH]c2cc1=O [Compound 1, 5-(2-fluoro-6-methylphenyl)-3-(4-(4-methylpiperazin-1-yl)phenyl)-1H-pyrazolo[4,3-c]pyridazin-6(5H)-one]",277%,–,–
≥ 7.30,"COc1cccc(F)c1-n1nc2c(-c3ccc(N4CCOCC4)nc3)n[nH]c2cc1=O [Compound 27, 5-(2-fluoro-6-methoxyphenyl)-3-(6-morpholinopyrid-3-yl)-1H-pyrazolo[4,3-c]pyridazin-6(5H)-one]",–,–,302%
≥ 7.30,"COc1cccc(F)c1-n1nc2c(-c3ccc(N4CCC(C)(O)CC4)cc3)n[nH]c2cc1=O [Compound 140, 5-(2-fluoro-6-methoxyphenyl)-3-(4-(4-hydroxyl-4-methylpiperidin-1-yl)phenyl)-1H-pyrazolo[4,3-c]pyridazin-6(5H)-one]",–,436%,–

# Further lines, the compound ahead of its results:
Compound,pIC50 [1],activity at 1 µM [2],activity at 3 µM [2],activity at 0.33 µM ([2]; test compound 0.33 μM)
"COc1cc(F)cc(F)c1-n1nc2c(-c3ccc(N4CCN(C)CC4)cc3)n[nH]c2cc1=O [Compound 77, 5-(2,4-difluoro-6-methoxyphenyl)-3-(4-(4-methylpiperazin-1-yl)phenyl)-1H-pyrazolo[4,3-c]pyridazin-6(5H)-one]",≥ 7.30,233%,–,–
"CCc1cccc(F)c1-n1nc2c(-c3ccc(N4CCN(CCO)CC4)cc3)n[nH]c2cc1=O [Compound 112, 5-(2-ethyl-6-fluorophenyl)-3-(4-(4-(2-hydroxyethyl)piperazin-1-yl)phenyl)-1H-pyrazolo[4,3-c]pyridazin-6(5H)-one]",≥ 7.30,–,703%,–
"Cc1cccc(F)c1-n1nc2c(-c3ccc(N4CCN(C5CCOC5)CC4)nc3)n[nH]c2cc1=O (centres unmarked) [Compound 106, 5-(2-fluoro-6-methylphenyl)-3-(6-(4-(tetrahydrofuran-3-yl)piperazin-1-yl)pyrid-3-yl)-1H-pyrazolo[4,3-c]pyridazin-6(5H)-one]",≥ 7.30,–,833%,–
Cc1cccc(F)c1-n1nc2c(-c3ccc4c(c3)CCN(C3CNC3)C4)n[nH]c2cc1=O [Compound 193],≥ 7.30,–,169%,–
"Cc1cc(C#N)cc(F)c1-n1nc2c(-c3ccc4c(c3)CN(C)CC4)n[nH]c2cc1=O [Compound 170, 3-fluoro-5-methyl-4-(3-(2-methyl-1,2,3,4-tetrahydroisoquinolin-7-yl)-6-oxo-1H-pyrazolo[4,3-c]pyridazin-5(6H)-yl)benzonitrile]",≥ 7.30,279%,–,–
"COc1cccc(F)c1-n1nc2c(-c3ccc(N4CCC(C)(OC)CC4)cc3)n[nH]c2cc1=O [Compound 141, 5-(2-fluoro-6-methoxyphenyl)-3-(4-(4-methoxy-4-methylpiperidin-1-yl)phenyl)-1H-pyrazolo[4,3-c]pyridazin-6(5H)-one]",≥ 7.30,–,390%,–
"Cc1cccc(F)c1-n1nc2c(-c3ccc4c(c3)CN(C)CC4)n[nH]c2cc1=O [Compound 156, 5-(2-fluoro-6-methylphenyl)-3-(2-methyl-1,2,3,4-tetrahydroisoquinolin-7-yl)-1H-pyrazolo[4,3-c]pyridazin-6(5H)-one]",≥ 7.30,–,849%,–
"Cc1cccc(F)c1-n1nc2c(-c3ccc(N4CC5CCC(C4)N5C)cc3)n[nH]c2cc1=O [Compound 61, 5-(2-fluoro-6-methylphenyl)-3-(4-(8-methyl-3,8-diazabicyclo[3.2.1]octan-3-yl)phenyl)-1H-pyrazolo[4,3-c]pyridazin-6(5H)-one]",≥ 7.30,–,635%,–
"COc1cc(C#N)cc(F)c1-n1nc2c(-c3ccc(N4CCN5C(=O)OCC5C4)cc3)n[nH]c2cc1=O (centres unmarked) [Compound 124, 3-fluoro-5-methoxy-4-(6-oxo-3-(4-(3-oxotetrahydro-1H-oxazolo[3,4-a]pyrazin-7(3H)-yl)phenyl)-1H-pyrazolo[4,3-c]pyridazin-5(6H)-yl)benzonitrile]",≥ 7.30,–,570%,–
"CC(C)c1cccc(F)c1-n1nc2c(-c3ccc(N4CCN(C)CC4)cc3)n[nH]c2cc1=O [Compound 29, 5-(2-fluoro-6-isopropylphenyl)-3-(4-(4-methylpiperazin-1-yl)phenyl)-1H-pyrazolo[4,3-c]pyridazin-6(5H)-one]",≥ 7.30,291%,–,–
"COc1cc(N2CCN(C)CC2)ccc1-c1n[nH]c2cc(=O)n(-c3c(C)cccc3F)nc12 [Compound 16, 5-(2-fluoro-6-methylphenyl)-3-(2-methoxy-4-(4-methylpiperazin-1-yl)phenyl)-1H-pyrazolo[4,3-c]pyridazin-6(5H)-one]",5.70 to 6.30,156%,–,–
